The test system of data set [1] is vagal afferent nerves (TRPV1) in the stomach. The data set can be described thus: Nausea and vomiting induced by intravenous vasopressin infusion, behavioral emetic score. Particulars: dogs, vasopressin 0.5 U/Kg iv over 20 minutes, one week after 250 ml of a 100 nM solution sprayed endoscopically; baseline 29.0±6.2; p=0.05. It is filed as in vivo, dog. As for the experimental part:
(§1) Nausea and vomiting was induced using either balloon distention or intra-venous infusion of vasopressin (0.5 U/Kg infused over 20 minutes). Untreated represents control or baseline mean score of the emetic response was 26.3±4.0 and 29.0±6.2 for balloon distention and vasopressin stimuli respectively. Following, Resiniferatoxin infusion (250 ml of a 100 nM solution): the mean score with balloon distention was 11.7±4.2 (p=0.01) while the mean score with vasopressin was 16.3±5 (p=0.05).
(§2) Four dogs with surgically created jejunocutaneous fistulae 20 cm distal to the pylorus were used in this study. Nausea and vomiting were induced using two different stimuli, both of which are vagally dependent, at least in part: (1) Balloon inflation in the jejunum (2) Intravenous vasopressin infusion (0.5 U/Kg infused over 20 minutes). Nausea was assessed using a previously validated behavioral scoring system in addition to counting actual episodes of vomiting. After baseline observations, resiniferatoxin (250 ml of a 100 nM solution) was administered endoscopically using a spray catheter to coat the mucosal lining of the stomach under general anesthesia into the stomach. One week later, the response to balloon distention and vasopressin infusion was recorded again.

Data set [2] can be described thus: General observation of dogs after endoscopic resiniferatoxin spray. It is filed as in vivo, dog. The conditions noted are these: after endoscopic gastric spray of 250 ml of a 100 nM solution. The method, then: as §2
Another data set deals with Suncus murinus. Particulars: subcutaneous; cited from earlier work.
The test system of another data set is dogs. The conditions noted are these: subcutaneous; cited from earlier work.
For data set [3], the system named is vagal afferent nerves (TRPV1) in the stomach. The data set can be described thus: Nausea and vomiting induced by balloon inflation in the jejunum, behavioral emetic score. It is filed as in vivo, dog. Particulars: dogs, one week after 250 ml of a 100 nM solution sprayed endoscopically onto gastric mucosa; baseline 26.3±4.0; p=0.01. As for the experimental part:
as §1, §2

The test system of data set [4] is ferrets. Particulars: subcutaneous; cited from earlier work.
For data set [5], the system named is ferrets. Particulars: subcutaneous; cited from earlier work. The source holds these as a separate data set.

As for `C=C(C)[C@]12C[C@@H](C)[C@@]34O[C@](Cc5ccccc5)(O[C@@H]1[C@@H]3C=C(COC(=O)Cc1ccc(O)c(OC)c1)C[C@]1(O)C(=O)C(C)=C[C@@H]41)O2` [Resiniferatoxin], in data set [1], the “mean score of the emetic response with vasopressin” value was found to be 16.3±5. For the same compound, in data set [2], the body weight change entry was “minor weight loss” and the “general health of dogs” value was “appeared healthy”. In the data set with Suncus murinus, the “emetic / anti-emetic properties” value is on record as “initial emetic followed by anti-emetic properties”. For the same compound, the “effect on acute and delayed cisplatin and apomorphine induced emesis” value in the data set on dogs was “inhibited”. For the same compound, in data set [3], the “mean score of the emetic response with balloon distention” value is recorded as 11.7±4.2. Besides, in the data set on ferrets [4], the “effect on acute and delayed cisplatin and apomorphine induced emesis” value was “inhibited”. In the data set on ferrets [5], the “effect on copper sulphate, whole body radiation and Loperamide induced emetic response” value was “blocked”.

Values taken from patent US8211941B2, “Antagonists of the transient receptor potential vanilloid 1 and uses thereof” (The Board of Regents of the University of Texas System, priority 2007, dated 2012).
